Laboratory results from publication doi:10.1101/2024.06.25.600598v1 (biorxiv, 2024).
Counter-ions that a name gives are not always drawn.

Assays:
[1] = molecular target: T1, fibroblast activation protein (FAP; rhFAP, SLIN-tagged hFAP) (Homo sapiens, UniProt Q12884); assay: DIANA competition with DNA-linked probe, qPCR; type: binding
T1 sequence (Q12884 35-760): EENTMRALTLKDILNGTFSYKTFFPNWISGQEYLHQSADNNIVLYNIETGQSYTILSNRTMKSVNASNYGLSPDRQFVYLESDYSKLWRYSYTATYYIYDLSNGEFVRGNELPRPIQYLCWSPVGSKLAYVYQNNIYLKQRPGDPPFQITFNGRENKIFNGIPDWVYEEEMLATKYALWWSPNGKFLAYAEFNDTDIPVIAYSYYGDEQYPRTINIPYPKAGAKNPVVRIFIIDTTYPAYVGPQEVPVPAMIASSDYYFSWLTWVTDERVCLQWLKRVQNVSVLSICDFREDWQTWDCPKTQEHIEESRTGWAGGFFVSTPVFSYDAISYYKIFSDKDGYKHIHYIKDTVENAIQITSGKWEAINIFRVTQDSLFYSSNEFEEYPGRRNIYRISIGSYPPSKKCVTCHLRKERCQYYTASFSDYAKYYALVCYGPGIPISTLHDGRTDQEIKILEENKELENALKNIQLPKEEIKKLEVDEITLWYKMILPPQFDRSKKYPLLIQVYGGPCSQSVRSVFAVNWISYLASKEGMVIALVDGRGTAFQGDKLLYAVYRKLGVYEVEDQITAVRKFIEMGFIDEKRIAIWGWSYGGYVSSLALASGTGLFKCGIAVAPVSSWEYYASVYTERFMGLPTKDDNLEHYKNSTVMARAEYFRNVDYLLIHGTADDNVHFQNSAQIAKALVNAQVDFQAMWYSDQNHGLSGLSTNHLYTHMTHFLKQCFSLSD

[2] = molecular target: T1, fibroblast activation protein (FAP; rhFAP, SLIN-tagged hFAP); assay: biochemical
[3] = molecular target: T1, fibroblast activation protein (FAP; rhFAP, SLIN-tagged hFAP); conditions: 2 µM; inhibitor
[4] = molecular target: T1, fibroblast activation protein (FAP; rhFAP, SLIN-tagged hFAP); assay: fluorogenic AMC substrate activity assay; type: biochemical
[5] = molecular target: T1, fibroblast activation protein (FAP; rhFAP, SLIN-tagged hFAP); assay: biochemical; type: binding

Ki [1] [µM]	Ki [2] [µM]	Relative inhibition (%), activity assay [3] [%]	IC50 [4] [µM]	Ki [5] [µM]	SMILES
0.0007 ± 0.0001					Cc1ccc(C)c(CNC(=O)C(=O)[C@@H]2CCCN2C(=O)CNC(=O)c2ccnc3ccccc23)c1 [6f]
	3.3	27			CNC(=O)c1ccc(-c2cnc3ncc(Cc4ccc5ncccc5c4)n3n2)cc1F [Capmatinib]
	7.9	26			CCOC(=O)n1ccn(C)c1=S [Carbimazole]
	1.7	35			CCCC(=O)OCOC(=O)C1=C(C)NC(C)=C(C(=O)OC)C1c1cccc(Cl)c1Cl (stereo not shown) [Clevidipine]
	3.6	19			CC(=O)[C@]1(O)Cc2c(O)c3c(c(O)c2[C@@H](O[C@H]2C[C@H](N)[C@H](O)[C@H](C)O2)C1)C(=O)c1ccccc1C3=O [Idarubicin (hydrochloride)]
	9.7	35			Cc1cnc(C(=O)N[C@H]2CCCCC/C=C\[C@@H]3C[C@@]3(C(=O)NS(=O)(=O)C3CC3)NC(=O)[C@@H]3C[C@@H](Oc4nc5ccccc5c5ccccc45)CN3C2=O)cn1 [Paritaprevir]
	0.6	19			COc1cccc2c1C(=O)c1c(O)c3c(c(O)c1C2=O)C[C@@](O)(C(=O)CO)C[C@@H]3O[C@H]1C[C@H](N)[C@H](O[C@@H]2CCCCO2)[C@H](C)O1 [Pirarubicin (Hydrochloride)]
				0.64	C[C@@H](O)[C@H]1C(=O)N2C(C(=O)OCOC(=O)C(C)(C)C)=C(SC3CN(C4=NCCS4)C3)[C@H](C)[C@H]12 [Tebipenem pivoxil]
	2.9	30			CCN(CC)CCOc1ccc2c(c1)C(=O)c1cc(OCCN(CC)CC)ccc1-2 [Tilorone (dihydrochloride)]
	5.9	19			CN1CCN(c2ccc(Nc3ncc4cc5n(c4n3)C3(CCCCC3)CNC5=O)nc2)CC1 [Trilaciclib (hydrochloride)]
	9.4	29			COc1cc2/c(=N/c3ccc(Br)cc3F)nc[nH]c2cc1OCC1CCN(C)CC1 [Vandetanib]
				0.6	C=CC1=C(C)C2=Cc3c(C=C)c(C)c4[n]3[Fe]([Cl])[n]3c(c(C)c(CCC(=O)O)c3=CC3=NC(=C4)C(C)=C3CCC(=O)O)=CC1=N2 [hemin]
		46		0.8	C=CC1=C(C)c2cc3[nH]c(cc4nc(cc5[nH]c(cc1n2)c(C)c5CCC(=O)O)C(CCC(=O)O)=C4C)c(C)c3C=C [protoporphyrin IX]

More lines, now with the values behind:

SMILES	Ki [1] [µM]	Ki [2] [µM]	Relative inhibition (%), activity assay [3] [%]	IC50 [4] [µM]	Ki [5] [µM]
CCOc1ccc(Nc2ccc(/C(=C3/C=CC(=[N+](CC)Cc4cccc(S(=O)(=O)[O-])c4)C=C3C)c3ccc(N(CC)Cc4cccc(S(=O)(=O)O)c4)cc3C)cc2)cc1 [Brilliant blue G-250]		0.9	28		
CCN1CCN(C(=O)N[C@@H](C(=O)N[C@@H]2C(=O)N3C(C(=O)O)=C(CSc4nnnn4C)CS[C@H]23)c2ccc(O)cc2)C(=O)C1=O [Cefoperazone (sodium salt)]		3.9	25		
CC(=O)OCC1=C(C(=O)O)N2C(=O)[C@@H](NC(=O)CSc3ccncc3)[C@H]2SC1 [Cephapirin (sodium)]		7.6	18		
COc1cccc2c1C(=O)c1c(O)c3c(c(O)c1C2=O)C[C@@](O)(C(C)=O)C[C@@H]3O[C@H]1C[C@H](N)[C@H](O)[C@H](C)O1 [Daunorubicin (hydrochloride)]		6.4	23		
CC/C=C\C/C=C\C/C=C\C/C=C\C/C=C\C/C=C\CCC(=O)O [Docosahexaenoic acid]		5.5	10		
COc1ccc(-c2cc(=O)c3c(O)c(OC)c(O)cc3o2)cc1OC [Eupatilin]		2	16		
Cc1cc(-c2ccc(/N=N/c3ccc4c(S(=O)(=O)O)cc(S(=O)(=O)O)c(N)c4c3O)c(C)c2)ccc1/N=N/c1ccc2c(S(=O)(=O)O)cc(S(=O)(=O)O)c(N)c2c1O [Evans Blue]		5.7	21		
CCc1c(Cl)c(O)c(Cl)c(O)c1C(=O)O[C@H]1[C@H](O)[C@H](OC)[C@H](OC/C2=C\C=C\C[C@H](O)/C(C)=C/[C@H](CC)[C@@H](O[C@@H]3OC(C)(C)[C@@H](OC(=O)C(C)C)[C@H](O)[C@@H]3O)/C(C)=C/C(C)=C/C[C@@H]([C@@H](C)O)OC2=O)O[C@@H]1C [Fidaxomicin]		6.9	10		
O=C1OC2(c3ccc(O)cc3Oc3cc(O)ccc32)c2ccccc21 [Fluorescein (sodium)]				> 20	
CCC1=C(C)CN(C(=O)NCCc2ccc(S(=O)(=O)NC(=O)N[C@H]3CC[C@H](C)CC3)cc2)C1=O [Glimepiride]		8.8	16		
CC1(C)C(/C=C/C=C/C=C/C=C2\N(CCCCS(=O)(=O)O)c3ccc4ccccc4c3C2(C)C)=[N+](CCCCS(=O)(=O)[O-])c2ccc3ccccc3c21 [Indocyanine green]		4.1	20		
COc1ccc2nc3cc(Cl)ccc3c(Nc3cc(CN4CCCC4)c(O)c(CN4CCCC4)c3)c2n1 [Pyronaridine (tetraphosphate)]		7.1	19		
C[n+]1cc2c3c(ccc2c2ccc4cc5c(cc4c21)OCO5)OCO3 [Sanguinarine (chloride)]		7.2	13		
Cc1ccc(C(=O)Nc2ccc(S(=O)(=O)O)c3cc(S(=O)(=O)O)cc(S(=O)(=O)O)c23)cc1NC(=O)c1cccc(NC(=O)Nc2cccc(C(=O)Nc3cc(C(=O)Nc4ccc(S(=O)(=O)O)c5cc(S(=O)(=O)O)cc(S(=O)(=O)O)c45)ccc3C)c2)c1 [Suramin (sodium salt)]		9.1	12		
C=Cc1c(C)c2cc3nc(c(CC(=O)N[C@@H](CC(=O)O)C(=O)O)c4[nH]c(cc5nc(cc1[nH]2)C(C)=C5CC)c(C)c4C(=O)O)[C@@H](CCC(=O)O)[C@@H]3C [Talaporfin (sodium)]		3	12		
CCN(c1cc(-c2ccc(CN3CCOCC3)cc2)cc(C(=O)NCc2c(C)cc(C)[nH]c2=O)c1C)C1CCOCC1 [Tazemetostat (hydrobromide)]		8.7	22		
CC(C)(C)C(=O)OCOC(=O)[C@@H]1N2C(=O)[C@@H](N=CN3CCCCCC3)[C@H]2SC1(C)C [pivmecillinam]			45		2.2
O=C1OC2(c3cc(I)c(O)c(I)c3Oc3c2cc(I)c(O)c3I)c2c(Cl)c(Cl)c(Cl)c(Cl)c21 [rose bengal]			9		0.1
